# From article PMC6934184, “Selective DNA-PKcs inhibition extends the therapeutic index of localized radiotherapy and chemotherapy” (The Journal of Clinical Investigation, 2019)
# Target: T1, SRPK1 (Homo sapiens, UniProt Q96SB4)
# T1 construct: purchased Thermo Fisher Scientific (Life Technologies) SelectScreen
# Test: SelectScreen Z'LYTE
# Format: biochemical
# Summary of the method: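 Percent values come from Thermo SelectScreen profiling of NU5455, combining activity and binding assays. CSF1R was run in Z'LYTE format at Km app ATP, and CAMK1 in Adapta format with ATP listed at 10.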
# T1 sequence (Q96SB4 whole entry): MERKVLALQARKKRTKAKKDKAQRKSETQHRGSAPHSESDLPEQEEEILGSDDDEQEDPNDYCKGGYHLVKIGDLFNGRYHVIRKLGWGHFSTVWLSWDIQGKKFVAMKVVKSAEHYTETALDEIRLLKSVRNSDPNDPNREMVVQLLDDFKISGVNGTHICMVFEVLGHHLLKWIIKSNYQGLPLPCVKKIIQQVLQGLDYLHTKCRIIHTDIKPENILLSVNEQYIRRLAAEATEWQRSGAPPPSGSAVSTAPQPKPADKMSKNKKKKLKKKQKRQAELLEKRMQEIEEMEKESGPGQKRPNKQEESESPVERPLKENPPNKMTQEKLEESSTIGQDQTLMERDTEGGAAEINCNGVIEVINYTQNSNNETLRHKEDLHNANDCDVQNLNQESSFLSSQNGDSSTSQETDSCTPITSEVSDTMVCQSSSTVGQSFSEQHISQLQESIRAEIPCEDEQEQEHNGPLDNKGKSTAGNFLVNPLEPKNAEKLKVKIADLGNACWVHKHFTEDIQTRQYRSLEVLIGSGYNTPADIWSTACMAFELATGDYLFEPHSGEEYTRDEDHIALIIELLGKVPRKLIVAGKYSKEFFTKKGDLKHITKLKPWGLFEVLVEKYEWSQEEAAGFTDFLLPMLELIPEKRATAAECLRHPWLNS
structure (smiles),measurement,value
CN(C(=O)CN1CCOCC1)c1ccc2sc3c(-c4cccc5c(=O)cc(N6CC7CCC(C6)O7)oc45)cccc3c2c1 [NU5455],inhibition at 1 µM,-1.1%
